Results: PMC11538350, “Synthetic studies on the tetrasubstituted D-ring of cystobactamids lead to potent terephthalic acid antibiotics” (Communications Chemistry, 2024)
Values after ≈ are worked out from the molar mass of the structure shown.

Columns and labels:
[1] = metabolic stability assay, human microsomes; conditions: second microsome column of Table S4, head prints (M); mouse and human microsomes
[2] = for T1/2 PLASMA (H): human plasma; for T1/2 PLASMA (M): mouse plasma
Method: 2.1 Materials and Methods […]
Determination of in vitro ADME properties
7, 8, 11 and 42. All samples were analysed via HPLC -MS/MS.
HPLC-MS/MS analysis of cystobactamids
AB Sciex QTrap 6500plus mass spectrometer. LC conditions were as follows: column:
Samples were run under acidic
For plasma stability experiments, samples were procured from commercial sources.
Human plasma was obtained from Antibodies-online (catalog no. ABIN5706569), and mouse plasma was obtained from Tebubio (catalog no. D408-04-0050).
The methods were performed in accordance with relevant guidelines and regulations and approved by the Helmholtz Centre for Infection Research. […]

[3] = metabolic stability assay, mouse microsomes; conditions: Table S4
[4] = tested on: K. pneum. KP10581; assay: MIC assay; type: cell-based; conditions: Klebsiella pneumoniae; read-out: MIC K. pneum. KP10581
Method: (§1) All cystobactamids were evaluated in MIC-assays on a panel of representative ESKAPE strains with focus on A. baumannii (Tables 1 and 2). Compared to our previous work[10],[17],[18], we specifically included more challenging test strains with known resistances against gyrase inhibitors.
(§2) 2.1 Materials and Methods
(§3) Strains were cultivated according to standard procedures. Bacterial cryo-cultures were
(§4) resuspended into fresh MHBII (cation adjusted) medium. The resuspension
(§5) assay plate (Corning, #3788).
(§6) in parallel as a positive control. […]

[5] = tested on: K. pneum. R-1525; assay: MIC assay; type: cell-based; conditions: Klebsiella pneumoniae; read-out: MIC K. pneum. R-1525
Method: as §1, §2, §3, §4, §5, §6

[6] = tested on: E. coli ATCC-25922; assay: MIC assay; type: cell-based; conditions: Escherichia coli, ATCC25922; reference strain; read-out: MIC E. coli ATCC-25922
Method: as §1, §2, §3, §4, §5, §6

[7] = tested on: S. aur. ATCC-29213; assay: MIC assay; type: cell-based; conditions: Staphylococcus aureus, ATCC29213; reference strain; read-out: MIC S. aur. ATCC-29213
Method: as §1, §2, §3, §4, §5, §6

[8] = tested on: A. baum. CIP-107292; assay: MIC assay; type: cell-based; conditions: Acinetobacter baumannii, CIP107292; read-out: MIC A. baum. CIP-107292
Method: as §1, §2, §3, §4, §5, §6

[9] = tested on: A. baum. ATCC BAA-1710; assay: MIC assay; type: cell-based; conditions: Acinetobacter baumannii, ATCCBAA1710; read-out: MIC A. baum. ATCC BAA-1710
Method: as §1, §2, §3, §4, §5, §6

[10] = tested on: P. ae. PA14ΔmexAB; assay: MIC assay; type: cell-based; conditions: Pseudomonas aeruginosa, read-out: MIC P. ae. PA14ΔmexAB
Method: as §1, §2, §3, §4, §5, §6

[11] = tested on: E. cloacae ATCC BAA-2468; assay: MIC assay; type: cell-based; conditions: Enterobacter cloacae, ATCCBAA2468; read-out: MIC E. cloacae ATCC BAA-2468
Method: as §1, §2, §3, §4, §5, §6

[12] = tested on: P. ae. PA14; assay: MIC assay; type: cell-based; conditions: Pseudomonas aeruginosa, PA14; reference strain; read-out: MIC P. ae. PA14
Method: as §1, §2, §3, §4, §5, §6

[13] = tested on: A. baum. DSM-30008; assay: MIC assay; type: cell-based; conditions: Acinetobacter baumannii, DSM30008; reference strain; read-out: MIC A. baum. DSM-30008
Method: as §1, §2, §3, §4, §5, §6

[14] = tested on: S. pneum. DSM-11865 (PRSP); assay: MIC assay; type: cell-based; conditions: Streptococcus pneumoniae; read-out: MIC S. pneum. DSM-11865 (PRSP)
Method: as §1, §2, §3, §4, §5, §6

[15] = tested on: E. coli LM705; assay: MIC assay; type: cell-based; conditions: Escherichia coli, LM705, read-out: MIC E. coli LM705
Method: as §1, §2, §3, §4, §5, §6

[16] = tested on: A. baum. CIP-105742; assay: MIC assay; type: cell-based; conditions: Acinetobacter baumannii, CIP105742; read-out: MIC A. baum. CIP-105742
Method: as §1, §2, §3, §4, §5, §6

[17] = tested on: A. baum. R835; assay: MIC assay; type: cell-based; conditions: Acinetobacter baumannii; read-out: MIC A. baum. R835
Method: as §1, §2, §3, §4, §5, §6

[18] = tested on: K. pneum. CIP-104298; assay: MIC assay; type: cell-based; conditions: Klebsiella pneumoniae, CIP104298; reference strain; read-out: MIC K. pneum. CIP-104298
Method: as §1, §2, §3, §4, §5, §6

[19] = tested on: E. ae. CIP 106754; assay: MIC assay; type: cell-based, Enterobacter aerogenes; conditions: Klebsiella aerogenes, CIP106754, read-out: MIC E. ae. CIP 106754
Method: as §1, §2, §3, §4, §5, §6

[20] = tested on: E. faec. DSM-17050 (VRE); assay: MIC assay; type: cell-based, Enterococcus faecium; conditions: Enterococcus; read-out: MIC E. faec. DSM-17050 (VRE)
Method: as §1, §2, §3, §4, §5, §6

[21] = tested on: ESKAPE strains; assay: MIC-assays on a panel of representative ESKAPE strains, summary in words; type: cell-based; conditions: summary of the MIC tables
Method: as §1, §2, §3, §4, §5, §6

Row | SMILES | T1/2 MICROSOMES (M) [1] [h] | T1/2 PLASMA (H) [2] [h] | T1/2 PLASMA (M) [2] [h] | MIC [4] [µg/mL] | MIC [5] [µg/mL] | MIC [6] [µg/mL] | MIC [7] [µg/mL] | MIC [8] [µg/mL] | MIC [9] [µg/mL] | MIC [10] [µg/mL] | MIC [11] [µg/mL] | MIC [12] [µg/mL] | MIC [13] [µg/mL] | MIC [14] [µg/mL] | MIC [15] [µg/mL] | MIC [16] [µg/mL] | MIC [17] [µg/mL] | MIC [18] [µg/mL] | MIC [19] [µg/mL] | MIC [20] [µg/mL] | other results
1 | C#CC[C@H](NC(=O)c1ccc(NC(=O)c2ccc(C#N)cc2)cc1)C(=O)Nc1ccc(C(=O)Nc2ccc(C(=O)Nc3ccc(C(=O)O)cc3)c(F)c2OC(C)C)cc1 [Cmpd. 4] | > 1 | > 4 | > 4 | > 64 | > 64 | 4 (≈ 5.03 µM) | > 64 | > 8 | > 8 | > 64 | > 64 | > 64 | 0.06 (≈ 0.0755 µM) | > 64 | > 64 | 0.25 to 0.5 (≈ 0.315 to 0.629 µM) | > 8 | > 64 | > 64 | 4 (≈ 5.03 µM) | T1/2 MICROSOMES (M) [3]: > 1 h
2 | C#CC[C@H](NC(=O)c1ccc(NC(=O)c2ccc(C#N)cc2)cc1)C(=O)Nc1ccc(C(=O)Nc2ccc(C(=O)Nc3ccc(C(=O)O)cc3)c(N)c2OC(C)C)cc1 [Cmpd. 7] | > 1 | > 4 | > 4 | > 64 | > 64 | 0.005 (≈ 0.00631 µM) | > 64 | > 64 | > 64 | – | > 64 | – | – | 0.2 (≈ 0.253 µM) | > 64 | – | > 64 | – | > 64 | > 64 | T1/2 MICROSOMES (M) [3]: > 1 h
3 | C#CC[C@H](NC(=O)c1ccc(NC(=O)c2ccc(C#N)cc2)cc1)C(=O)Nc1ccc(C(=O)Nc2ccc(C(=O)Nc3ccc(C(=O)O)cc3)nc2OC(C)C)cc1 [Cmpd. 8] | > 1 | > 4 | > 4 | > 64 | > 64 | ≤ 0.03 | > 64 | 8 (≈ 10.3 µM) | > 64 | – | > 64 | – | – | – | > 64 | – | > 64 | – | > 64 | 0.25 (≈ 0.321 µM) | T1/2 MICROSOMES (M) [3]: > 1 h
4 | CO[C@@H](C(N)=O)[C@H](NC(=O)c1ccc(NC(=O)c2ccc(C#N)cc2)cc1)C(=O)Nc1ccc(C(=O)Nc2ccc(C(=O)Nc3ccc(C(=O)O)cc3)c(C(F)F)c2OC(C)C)cc1 [Cmpd. 9] | – | – | – | > 64 | > 64 | > 8 | > 64 | > 8 | > 8 | > 64 | > 64 | > 64 | > 8 | > 64 | > 64 | > 8 | > 8 | > 64 | > 64 | > 64 | antibacterial activity on the pathogen panel, in words [21]: complete elimination of activity
5 | C#CC[C@H](NC(=O)c1ccc(NC(=O)c2ccc(C#N)cc2)cc1)C(=O)Nc1ccc(C(=O)Nc2ccc(C(=O)Nc3ccc(C(=O)O)cc3)c(O)c2CC(C)C)cc1 [Cmpd. 11] | > 1 | > 4 | > 4 | 8 (≈ 10.1 µM) | > 64 | < 0.03 | 16 to 32 (≈ 20.2 to 40.5 µM) | > 64 | 0.25 (≈ 0.316 µM) | > 64 | > 64 | > 64 | 1 (≈ 1.26 µM) | > 64 | > 64 | < 0.03 | > 64 | > 64 | > 64 | < 0.03 | T1/2 MICROSOMES (M) [3]: > 1 h
6 | C#CC[C@H](NC(=O)c1ccc(NC(=O)c2ccc(C#N)cc2)cc1)C(=O)Nc1ccc(C(=O)Nc2ccc(CNc3ccc(C(=O)O)cc3)c(O)c2OC(C)C)cc1 [Cmpd. 41] | – | – | – | > 64 | > 64 | > 64 | 16 to 32 (≈ 20.5 to 41.1 µM) | > 8 | 1 to 2 (≈ 1.28 to 2.57 µM) | > 64 | > 64 | > 64 | > 8 | > 64 | > 64 | > 8 | > 8 | > 64 | > 64 | 16 to 32 (≈ 20.5 to 41.1 µM) | antibacterial activity on the pathogen panel, in words [21]: inactive
7 | C#CC[C@H](NC(=O)c1ccc(NC(=O)c2ccc(C#N)cc2)cc1)C(=O)Nc1ccc(C(=O)Nc2ccc(-c3cn(-c4ccc(C(=O)O)cc4)nn3)c(O)c2OC(C)C)cc1 [Cmpd. 43] | – | – | – | > 64 | > 64 | > 64 | > 64 | > 8 | > 8 | > 64 | > 64 | > 64 | > 8 | > 64 | > 64 | > 8 | > 8 | > 64 | > 64 | > 64 | antibacterial activity on the pathogen panel, in words [21]: inactive
8 | C#CC[C@H](NC(=O)c1ccc(NC(=O)c2ccc(C#N)cc2)cc1)C(=O)Nc1ccc(C(=O)Nc2ccc(-c3ccc(C(=O)O)cc3)c(O)c2OC(C)C)cc1 [Cmpd. 44] | – | – | – | > 64 | > 64 | > 64 | > 64 | > 64 | > 64 | > 64 | > 64 | > 64 | > 64 | > 64 | > 64 | > 64 | > 64 | > 64 | > 64 | < 0.03 | antibacterial activity on the pathogen panel, in words [21]: inactive
